One test deals with T1, TAK1-TAB1 fusion protein (Homo sapiens, UniProt O43318).
T1 construct: purchased Carna
T1 sequence (O43318 with tags, fused parts or gaps limits assumed): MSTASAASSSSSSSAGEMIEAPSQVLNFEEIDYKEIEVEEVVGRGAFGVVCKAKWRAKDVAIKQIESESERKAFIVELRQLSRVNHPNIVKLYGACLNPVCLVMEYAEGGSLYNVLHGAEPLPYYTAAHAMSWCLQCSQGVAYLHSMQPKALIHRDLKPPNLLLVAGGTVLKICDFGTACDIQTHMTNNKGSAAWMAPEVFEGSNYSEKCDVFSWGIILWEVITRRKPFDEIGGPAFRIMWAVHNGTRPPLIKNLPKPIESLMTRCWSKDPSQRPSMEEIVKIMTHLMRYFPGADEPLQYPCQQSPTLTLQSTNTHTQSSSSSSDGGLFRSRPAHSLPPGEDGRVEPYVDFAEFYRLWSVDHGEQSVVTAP
Nature of the test: TAK1 biochemical assay (AlphaScreen, GST-MAP2K7 substrate).

The next test deals with pJNK in HCT-116 cells. The test is described as follows: Phospho-JNK (Thr183/Tyr185) Meso Scale ELISA assay, TNFα-stimulated HCT-116 cells. The format is cell-based. To be noted: Homo sapiens, read-out: mean HCT-116 pJNK ELISA IC50 (Col. B). On the procedure:
Detailed below are ELISA assays for pJNK and p38, and a TAK1 biochemical assay. […] In Table 1, Col.
Phospho-JNK (Thr183/Tyr185) Meso Scale ELISA Assay
• 1. Plate HCT-116 cells at 25,000 per well in 100 uL in 96 well clear dishes in normal growth medium. Day 2: • 1. Aspirate medium and replace with 90 μl reduced serum growth medium (1% FCS), incubate for 2 hours at 37° C. • 2. Make drugs at 10× in reduced serum medium and add 10 uL per well. • 3. Incubate at 37° C. for 4 hrs. • 4. Bring capture plates to room temperature. • 5. Block with 150 μl Blocking Solution (provided with kit) (600 mg Blocker A into 20 mL 1× Wash Buffer per plate) at room temperature with shaking. • 6. Wash plates 4× with 200 μl 1× wash buffer (10× provided with kit) before transferring lysates. • 7. Dilute TNFα to […] in reduced serum medium (this makes a 10× working stock). • 8. Add 10 μl TNFα to all wells except negative control wells, final concentration is 10 ng/mL. • 9. Incubate at 37° C. for 10 minutes. • 10. Remove medium by flicking into sink • 11. Wash cells with 100 uL ice cold PBS. • 12. Remove PBS by flicking into sink and patting on paper towels. • 13. Lyse cells in 50 μl ice cold 1× Complete Lysis Buffer plus Phosphatase and Protease inhibitors (all provided with kit) (10 mL Tris Lysis Buffer+200 μl Protease inhibitor solution+100 μl Phosphatase inhibitor I+100 μl Phosphatase inhibitor II). • 14. Incubate with shaking at 4° C. for 30 minutes. • 15. Transfer 45 μl to capture plate, cover with adhesive cover, and incubate at 4° C. over night with shaking. • Day 3: • 1. Wash plates 4× with 200 μl 1× wash buffer (10× provided with kit). • 2. […] Incubate at room temperature with shaking for 1 hour. • 4. Wash 4× with 200 μl 1× Wash Buffer. • 5. […] Read on Sector Imager. Phospho-p38 Meso Scale ELISA Assay Day 1: • 1. Plate HCT-116 cells at 25,000 per well in 100 uL in 96 well clear dishes in normal growth medium. zday 2: • 1. Aspirate medium and replace with 90 μl reduced serum growth medium (1% FCS), incubate for 2 hours at 37° C. • 2. Make drugs at 10× in reduced serum medium and add 10 uL per well. • 3. Incubate at 37° C. for 4 hrs. • 4. Bring capture plates to room temperature. • 5. Block with 150 μl Blocking Solution (provided with kit) (600 mg Blocker A into 20 mL 1× Wash Buffer per plate) at room temperature with shaking. • 6. Wash plates 4× with 200 μl 1× wash buffer (10× provided with kit) before transferring lysates. • 7. Dilute TNFα to […] in reduced serum medium (this makes a 10× working stock). • 8. Add 10 μl TNFα to all wells except negative control wells, final concentration is 10 ng/mL. • 9. Incubate at 37° C. for 10 minutes. • 10. Remove medium by flicking into sink • 11. Wash cells with 100 uL ice cold PBS. • 12. Remove PBS by flicking into sink and patting on paper towels. • 13. Lyse cells in 50 μl ice cold 1× Complete Lysis Buffer plus phosphatase and protease inhibitors (all provided with kit) (10 mL Tris Lysis Buffer+200 μl Protease inhibitor solution+100 μl Phosphatase inhibitor I+100 μl Phosphatase inhibitor II). • 14. Incubate with shaking at 4° C. for 30 minutes. • 15. Dilute lysates before transferring to capture plate with 100 μl Complete p38 Lysate • Dilution Buffer (provided with kit) (10 mL of Diluent 20±200 μl Protease inhibitor solution+100 μl Phosphatase inhibitor I+100 μl Phosphatase inhibitor II). • 16. Transfer 50 μl of diluted lysates to capture plate, cover with adhesive cover, and incubate at 4° C. over night with shaking. Day 3: • 1. Wash plates 4× with 200 μl 1× wash buffer (10× provided with kit). • 2. […] Incubate at room temperature with shaking for 1 hour. • 4. Wash 4× with 200 μl 1× Wash Buffer. • 5. […] Read on Sector Imager. TAK1 Biochemical Assay
Background: ELISA stands for enzyme-linked immunosorbent assay.

[1] abbreviates: TAK1-TAB1 fusion protein, GST-MAP2K7 substrate, read-out: mean TAK1 IC50 (Col. A).

pIC50: −log10 of the molar value. Counter-ions that a name gives are not always drawn. Like-named read-outs stand apart in the source and are kept apart here.

Consider `CC(C)CNC(=O)N1CCC(n2cc(-c3cnc(N)c4oc(-c5cccc6cnsc56)cc34)cn2)CC1` [Example 338, 4-[4-(7-amino-2-benzo[d]isothiazol-7-yl-furo[2,3-c]pyridin-4-yl)-pyrazol-1-yl]-piperidine-1-carboxylic acid isobutyl-amide], for which the pIC50 at TAK1-TAB1 fusion protein (setting [1]) and in the test on pJNK in HCT-116 cells was 6.00 to 7.00 in each case.

Take `N#Cc1sc2cnccc2c1-c1cc2c(-c3cnn([C@H]4CC[C@H](O)CC4)c3)cnc(N)c2o1` [Example 270, 3-{7-amino-4-[1-(trans-4-hydroxycyclohexyl)-1H-pyrazol-4-yl]furo[2,3-c]pyridin-2-yl}thieno[2,3-c]pyridine-2-carbonitrile trifluoroacetate]: the negative-log IC50 (pIC50) (commonly the negative decadic logarithm of the IC50, by convention in mol/L) at TAK1-TAB1 fusion protein (setting [1]) was 6.00 to 7.00; in the test with pJNK in HCT-116 cells it was above 7.00.

Turning to `Nc1ncc(-c2cnn([C@H]3CC[C@H](O)CC3)c2)c2cc(-c3cccn4cncc34)oc12` [Example 365, trans-4-{4-[7-amino-2-(imidazo[1,5-a]pyridin-8-yl)furo[2,3-c]pyridin-4-yl]-1H-pyrazol-1-yl}cyclohexanol.diformate], the pIC50 on TAK1-TAB1 fusion protein (setting [1]) and in the test on pJNK in HCT-116 cells was above 7.00 in each case.

For the molecule `CC(=O)N1CCC(n2cc(-c3cnc(N)c4oc(-c5csc6cnc(O)cc56)cc34)cn2)CC1` [Example 251, 1-(4-{4-[7-amino-2-(5-hydroxythieno[2,3-c]pyridin-3-yl)furo[2,3-c]pyridin-4-yl]-1H-pyrazol-1-yl}piperidin-1-yl)ethanone bis(trifluoroacetate)], the pIC50 is 6.00 to 7.00 on TAK1-TAB1 fusion protein (setting [1]) and 5.00 to 6.00 in the test with pJNK in HCT-116 cells.

As to `COCCCn1cc(-c2cnc(N)c3oc(-c4csc5cnccc45)cc23)cn1` [Example 342, 4-[1-(3-methoxy-propyl)-1H-pyrazol-4-yl]-2-thieno[2,3-c]pyridin-3-yl-furo[2,3-c]pyridin-7-ylamine], the pIC50 on TAK1-TAB1 fusion protein (setting [1]) and with pJNK in HCT-116 cells was 6.00 to 7.00 each time.

As for `CNc1ncc(-c2cnn([C@H]3CC[C@H](O)CC3)c2)c2cc(-c3csc4cnc(F)cc34)oc12` [Example 283, trans-4-{4-[2-(5-fluorothieno[2,3-c]pyridin-3-yl)-7-(methylamino)furo[2,3-c]pyridin-4-yl]-1H-pyrazol-1-yl}cyclohexanol], the pIC50 on TAK1-TAB1 fusion protein (setting [1]) and with pJNK in HCT-116 cells was above 7.00 each time.

As to `Nc1ncc(-c2cnn([C@H]3CC[C@H](O)CC3)c2)c2c(Cl)c(-c3csc4cnccc34)oc12` [Example 287, trans-4-{4-[7-amino-3-chloro-2-(thieno[2,3-c]pyridin-3-yl)furo[2,3-c]pyridin-4-yl]-1H-pyrazol-1-yl}cyclohexanol], the figures for the pIC50 on TAK1-TAB1 fusion protein (setting [1]) and in the test with pJNK in HCT-116 cells were 6.00 to 7.00 and above 7.00, respectively.

With `Nc1ncc(-c2cnn([C@H]3CC[C@H](O)CC3)c2)c2cc(-c3csc4cnncc34)oc12` [Example 268, trans-4-{4-[7-amino-2-(thieno[2,3-d]pyridazin-3-yl)furo[2,3-c]-pyridin-4-yl]-1H-pyrazol-1-yl}cyclohexanol bistrifluoroacetate], the pIC50 at TAK1-TAB1 fusion protein (setting [1]) and in the test on pJNK in HCT-116 cells was above 7.00 throughout.

Turning to `Nc1ncc(-c2cnn([C@@H]3CCC[C@@H](O)C3)c2)c2cc(-c3csc4cnccc34)oc12` (relative stereo) [Example 309, trans-3-[4-(7-amino-2-thieno[2,3-c]pyridin-3-yl-furo[2,3-c]pyridin-4-yl)-pyrazol-1-yl]-cyclohexanol], the negative logarithm of the IC50 (pIC50) at TAK1-TAB1 fusion protein (setting [1]) and with pJNK in HCT-116 cells was above 7.00 throughout.

For `Nc1ncc(-c2cnn([C@@H]3CCC[C@H](O)C3)c2)c2cc(-c3csc4cnccc34)oc12` (relative stereo) [Example 310, cis-3-[4-(7-amino-2-thieno[2,3-c]pyridin-3-yl-furo[2,3-c]pyridin-4-yl)-pyrazol-1-yl]-cyclohexanol], the pIC50 at TAK1-TAB1 fusion protein (setting [1]) and with pJNK in HCT-116 cells was above 7.00 each time.

Turning to `Nc1ncc(-c2cnn([C@@H]3C[C@H]4CC[C@@H](C3)N4C=O)c2)c2cc(-c3csc4cnccc34)oc12` [Example 324, (3-exo)-3-{4-[7-amino-2-(thieno[2,3-c]pyridin-3-yl)furo[2,3-c]pyridin-4-yl]-1H-pyrazol-1-yl}-8-azabicyclo[3.2.1]octane-8-carbaldehyde], the pIC50 at TAK1-TAB1 fusion protein (setting [1]) and in the test with pJNK in HCT-116 cells was above 7.00 throughout.

Consider `Nc1ncc(-c2cnn(C3CCN(C(=O)C4CC4)CC3)c2)c2cc(-c3csc4cnccc34)oc12` [Example 228, (4-{4-[7-amino-2-(thieno[2,3-c]pyridin-3-yl)furo[2,3-c]pyridin-4-yl]-1H-pyrazol-1-yl}piperidin-1-yl)(cyclopropyl)methanone diformate salt], for which the pIC50 on TAK1-TAB1 fusion protein (setting [1]) and in the test with pJNK in HCT-116 cells was above 7.00 each time.

With `CC(=O)N1CCC(n2cc(-c3cnc(N)c4oc(-c5cccc6sncc56)cc34)cn2)CC1` [Example 241, 1-(4-{4-[7-amino-2-(1,2-benzothiazol-4-yl)furo[2,3-c]pyridin-4-yl]-1H-pyrazol-1-yl}piperidin-1-yl)ethanone diformate Salt], the pIC50 on TAK1-TAB1 fusion protein (setting [1]) and in the test with pJNK in HCT-116 cells was above 7.00 in each case.

With `Nc1ncc(-c2cnn([C@H]3CC[C@H](O)CC3)c2)c2c(Cl)c(-c3cccc4nnsc34)oc12` [Example 286, trans-4-{4-[7-amino-2-(1,2,3-benzothiadiazol-7-yl)-3-chlorofuro[2,3-c]pyridin-4-yl]-1H-pyrazol-1-yl}cyclohexanol], the pIC50 against TAK1-TAB1 fusion protein and in the test with pJNK in HCT-116 cells was above 7.00 each time.

On to `Nc1ncc(-c2cnn([C@H]3CC[C@H](O)CC3)c2)c2cc(-c3cccc4ncsc34)oc12` [Example 231, trans-4-{4-[7-amino-2-(1,3-benzothiazol-7-yl)furo[2,3-c]pyridin-4-yl]-1H-pyrazol-1-yl}cyclohexanol diformate salt], for which the pIC50 on TAK1-TAB1 fusion protein (setting [1]) and in the test with pJNK in HCT-116 cells was above 7.00 in each case.

For the molecule `Nc1ncc(-c2cnn(C3CCN(C(=O)CCc4ccccc4)CC3)c2)c2cc(-c3csc4cnccc34)oc12` [Example 331, 1-{4-[4-(7-amino-2-thieno[2,3-c]pyridin-3-yl-furo[2,3-c]pyridin-4-yl)-pyrazol-1-yl]-piperidin-1-yl}-3-phenyl-propan-1-one], the negative-log IC50 (pIC50) at TAK1-TAB1 fusion protein (setting [1]) and in the test with pJNK in HCT-116 cells was 6.00 to 7.00 in each case.

As to `CN1[C@@H]2CC[C@H]1C[C@H](n1cc(-c3cnc(N)c4oc(-c5csc6cnccc56)cc34)cn1)C2` [Example 328, 4-{1-[(3-exo)-8-methyl-8-azabicyclo[3.2.1]oct-3-yl]-1H-pyrazol-4-yl}-2-(thieno[2,3-c]pyridin-3-yl)furo[2,3-c]pyridin-7-amine], the pIC50 at TAK1-TAB1 fusion protein (setting [1]) was above 7.00; in the test on pJNK in HCT-116 cells it was 6.00 to 7.00.

The values are drawn from patent publication US8378104B2 (OSI Pharmaceuticals, LLC, priority 2010, dated 2013).
